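Compound exposure: 48 hours, 5 concentrations, 96-well plates. Here, GI50 denotes the concentration required for 50% inhibition of growth. TGI denotes the concentration required for complete inhibition of growth.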
Legend:
Experiment in all cases: DTP human tumour cell line panel, 48 h
SN12C renal = test system: SN12C renal
OVCAR-5 ovarian = test system: OVCAR-5 ovarian
SW-620 colon = test system: SW-620 colon
A549 NSCLC = test system: A549 NSCLC
SK-OV-3 ovarian = test system: SK-OV-3 ovarian
OVCAR-8 ovarian = test system: OVCAR-8 ovarian
A498 renal = test system: A498 renal
DU-145 prostate = test system: DU-145 prostate
HL-60(TB) leukemia = test system: HL-60(TB) leukemia
COLO 205 colon = test system: COLO 205 colon

| SMILES | GI50 (SN12C renal) | TGI (SN12C renal) | GI50 (OVCAR-5 ovarian) | TGI (OVCAR-5 ovarian) | GI50 (SW-620 colon) | TGI (SW-620 colon) | GI50 (A549 NSCLC) | TGI (A549 NSCLC) | GI50 (SK-OV-3 ovarian) | TGI (SK-OV-3 ovarian) | GI50 (OVCAR-8 ovarian) | TGI (OVCAR-8 ovarian) | GI50 (A498 renal) | TGI (A498 renal) | GI50 (DU-145 prostate) | TGI (DU-145 prostate) | GI50 (HL-60(TB) leukemia) | TGI (HL-60(TB) leukemia) | GI50 (COLO 205 colon) | TGI (COLO 205 colon) |
| --- | --- | --- | --- | --- | --- | --- | --- | --- | --- | --- | --- | --- | --- | --- | --- | --- | --- | --- | --- | --- |
| Nc1ccc(C(=O)c2ccc(N)c(Br)c2)cc1Br | 0.903 µM | > 100 µM | 0.701 µM | > 100 µM | 0.379 µM | > 100 µM | 0.494 µM | 31.3 µM | 0.425 µM | 32.6 µM | 0.518 µM | 46.1 µM | 0.277 µM | 3.95 µM | 0.334 µM | 1.58 µM | 0.326 µM | 2.8 µM | 0.393 µM | 2.2 µM |
| CCCCCNC(=O)[C@@H]1CCCN2C(=O)CC[C@H](NC(=O)[C@H](Cc3ccc(OP(=O)(O)O)cc3)NC(C)=O)C(=O)N12 | > 25 µM | > 25 µM | > 25 µM | > 25 µM | > 25 µM | > 25 µM | > 25 µM | > 25 µM | > 25 µM | > 25 µM | > 25 µM | > 25 µM | > 25 µM | > 25 µM | > 25 µM | > 25 µM | > 25 µM | > 25 µM | > 25 µM | > 25 µM |
| OCC(O)C(O)C(O)C1SC(c2ccccc2)=NN1c1ccccc1 (stereo not drawn) | – | > 100 µM | – | > 100 µM | – | > 100 µM | – | > 100 µM | – | 76.9 µM | – | > 100 µM | – | > 100 µM | – | > 100 µM | – | > 100 µM | – | > 100 µM |
| CC(C)(C)C(=O)Nc1ccccc1I(=O)=O | > 100 µM | > 100 µM | > 100 µM | > 100 µM | > 100 µM | > 100 µM | > 100 µM | > 100 µM | > 100 µM | > 100 µM | > 100 µM | > 100 µM | > 100 µM | > 100 µM | > 100 µM | > 100 µM | > 100 µM | > 100 µM | > 100 µM | > 100 µM |
| COc1ccc2c(c1)nc(N)c1c3cc(OC)c(OC)cc3cn21 | 0.147 µM | 17.5 µM | 0.0749 µM | 18.8 µM | < 0.01 µM | 19.8 µM | 0.0925 µM | 16.6 µM | < 0.01 µM | 0.321 µM | 0.123 µM | 13.6 µM | 0.0135 µM | 0.592 µM | – | 8.63 µM | 0.196 µM | 0.622 µM | – | 0.521 µM |
| CCOC(=O)CCCn1c(SC)nc2cc(-c3ccco3)[nH]c2c1=O | 81.8 µM | > 100 µM | > 100 µM | > 100 µM | > 100 µM | > 100 µM | > 100 µM | > 100 µM | 5.74 µM | 32.5 µM | 31.1 µM | > 100 µM | 27.4 µM | 76 µM | > 100 µM | > 100 µM | > 100 µM | > 100 µM | > 100 µM | > 100 µM |
| NCCCC(=O)Nc1ccncc1 | > 100 µM | > 100 µM | > 100 µM | > 100 µM | > 100 µM | > 100 µM | > 100 µM | > 100 µM | > 100 µM | > 100 µM | > 100 µM | > 100 µM | > 100 µM | > 100 µM | > 100 µM | > 100 µM | > 100 µM | > 100 µM | > 100 µM | > 100 µM |
| Cn1ccc2c(NCCN)c3c(c(NCCN)c21)C(=O)c1ccccc1C3=O | 0.465 µM | 1.61 µM | 2.78 µM | 12 µM | 0.514 µM | 2.59 µM | 2.83 µM | 12.1 µM | 20.3 µM | 42.4 µM | 2.84 µM | 13.4 µM | 2.31 µM | 4.87 µM | 0.453 µM | 6.05 µM | 2.91 µM | 64.1 µM | 24.4 µM | 68.4 µM |
| FC(F)(F)c1cccc(COCCN2CCN(Cc3cccc(C(F)(F)F)c3)CC2)c1 | – | 33 µM | – | 31.6 µM | – | 28.3 µM | – | 30.9 µM | – | 31.1 µM | – | 41.2 µM | – | 28.8 µM | – | 32.4 µM | – | > 100 µM | – | 42.3 µM |

Source: PubChem BioAssay (NCI)
